How the values were obtained:
Format in all cases: cell-based
[1] = system: mantle cell lymphoma cell (Mino or JeKo-1); assay: Antiproliferative effect, MTS cell viability assay; conditions: 72 h; for IC50: mantle cell lymphoma cell (Mino or JeKo-1), MTS assay, read-out: IC50 (anti-proliferation)
Summary of the method: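 MTS read-out (formazan absorbance at 490 nm) after 72 h exposure of Mino cells to 0–1 μM compound (0.0001, 0.001, 0.01, 0.1, 1 μM). Palbociclib and abemaciclib served as positive controls.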

CDK4 = target: T1, CDK4 (Homo sapiens, UniProt P11802); assay: CDK4 degradation (DC50, Dmax)
T1 construct: endogenous in cells

CDK6 = target: T2, CDK6 (Homo sapiens, UniProt Q00534); assay: CDK6 degradation (DC50, Dmax)
T2 construct: endogenous in cells
T2 sequence (Q00534 whole entry): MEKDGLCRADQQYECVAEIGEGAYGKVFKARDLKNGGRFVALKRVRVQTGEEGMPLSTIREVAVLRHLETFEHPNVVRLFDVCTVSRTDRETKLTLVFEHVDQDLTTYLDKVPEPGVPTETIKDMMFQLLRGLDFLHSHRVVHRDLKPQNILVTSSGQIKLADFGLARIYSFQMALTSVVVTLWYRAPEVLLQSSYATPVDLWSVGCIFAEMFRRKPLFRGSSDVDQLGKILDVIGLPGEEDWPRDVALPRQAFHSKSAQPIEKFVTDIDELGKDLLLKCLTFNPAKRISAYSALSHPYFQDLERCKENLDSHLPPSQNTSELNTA

T1 sequence (P11802 whole entry): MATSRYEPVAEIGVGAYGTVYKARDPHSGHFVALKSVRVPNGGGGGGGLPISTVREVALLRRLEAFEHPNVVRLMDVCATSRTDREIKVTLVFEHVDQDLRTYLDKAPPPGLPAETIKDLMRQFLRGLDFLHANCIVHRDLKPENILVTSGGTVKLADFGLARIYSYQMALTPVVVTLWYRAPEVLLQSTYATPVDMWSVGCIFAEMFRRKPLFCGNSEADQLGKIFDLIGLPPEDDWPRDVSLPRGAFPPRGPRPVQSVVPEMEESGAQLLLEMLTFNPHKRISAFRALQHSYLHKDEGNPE

Structure (SMILES)	IC50 [1] [nM]	DC50 (CDK4) [nM]	Dmax (CDK4) [%]	DC50 (CDK6) [nM]	Dmax (CDK6) [%]	inhibition of cell proliferation of Mino cells ([1]; Mino cells, 0-1 μM, result in words)
CC(=O)c1c(C)c2cnc(Nc3ccc(N4CCN(CCCCN(C)c5ccc6c(c5)C(=O)N(C5CCC(=O)NC5=O)C6=O)CC4)cn3)nc2n(C2CCCC2)c1=O (stereo not shown) [Compound 59, 5-((4-(4-(6-((6-acetyl-8-cyclopentyl-5-methyl-7-oxo-7,8-dihydropyrido[2,3-d]pyrimidin-2-yl)amino)pyridin-3-yl)piperazin-1-yl)butyl)(methyl)amino)-2-(2,6-dioxopiperidin-3-yl) isoindoline-1,3-dione]	50 to 200	50 to 200	> 60	50 to 200	> 60	
CC(=O)c1c(C)c2cnc(Nc3ccc(N4CCN(CCCCN(C)c5ccc6c(c5)CN(C5CCC(=O)NC5=O)C6=O)CC4)cn3)nc2n(C2CCCC2)c1=O (stereo not shown) [Compound 60, 3-(5-((4-(4-(6-((6-acetyl-8-cyclopentyl-5-methyl-7-oxo-7,8-dihydropyrido[2,3-d]pyrimidin-2-yl)amino)pyridin-3-yl)piperazin-1-yl)butyl)(methyl)amino)-1-oxoisoindolin-2-yl) piperidine-2,6-dione]	50 to 200	50 to 200	> 60	50 to 200	> 60	
CC(=O)c1c(C)c2cnc(Nc3ccc(N4CCN(CCN(C)c5cccc6c5C(=O)N(C5CCC(=O)NC5=O)C6=O)CC4)cn3)nc2n(C2CCCC2)c1=O (stereo not shown) [Compound 61, 4-((2-(4-(6-((6-acetyl-8-cyclopentyl-5-methyl-7-oxo-7,8-dihydropyrido[2,3-d]pyrimidin-2-yl)amino)pyridin-3-yl)piperazin-1-yl)ethyl)(methyl)amino)-2-(2,6-dioxopiperidin-3-yl) isoindoline-1,3-dione]	50 to 200	50 to 200	> 60	50 to 200	> 60	
CC(=O)c1c(C)c2cnc(Nc3ccc(N4CCN(CCCNc5cccc6c5C(=O)N(C5CCC(=O)NC5=O)C6=O)CC4)cn3)nc2n(C2CCCC2)c1=O (stereo not shown) [Compound 62, 4-((3-(4-(6-((6-acetyl-8-cyclopentyl-5-methyl-7-oxo-7,8-dihydropyrido[2,3-d]pyrimidin-2-yl)amino)pyridin-3-yl)piperazin-1-yl)propyl)amino)-2-(2,6-dioxopiperidin-3-yl) isoindoline-1,3-dione]	< 50	50 to 200	> 80	50 to 200	> 80	
CC(=O)c1c(C)c2cnc(Nc3ccc(N4CCN(C5CCN(c6ccc7c(c6)C(=O)N(C6CCC(=O)NC6=O)C7=O)CC5)CC4)cn3)nc2n(C2CCCC2)c1=O (stereo not shown) [Compound 63, 5-(4-(4-(6-((6-acetyl-8-cyclopentyl-5-methyl-7-oxo-7,8-dihydropyrido[2,3-d]pyrimidin-2-yl)amino)pyridin-3-yl)piperazin-1-yl)piperidin-1-yl)-2-(2,6-dioxopiperidin-3-yl)isoindoline-1,3-dione]	< 50	50 to 200	> 80	< 50	> 80	dose-dependent inhibition of cell proliferation
CC(=O)c1c(C)c2cnc(Nc3ccc(N4CCN(C5CCN(c6ccc7c(c6)CN(C6CCC(=O)NC6=O)C7=O)CC5)CC4)cn3)nc2n(C2CCCC2)c1=O (stereo not shown) [Compound 64, 3-(5-(4-(4-(6-((6-acetyl-8-cyclopentyl-5-methyl-7-oxo-7,8-dihydropyrido[2,3-d]pyrimidin-2-yl)amino)pyridin-3-yl)piperazin-1-yl)piperidin-1-yl)-1-oxoisoindolin-2-yl)piperidine-2,6-dione]	< 50	50 to 200	> 80	50 to 200	> 80	

Reference: patent publication US20230295118A1 (EnhancedBio Inc., priority 2022, published 2023)
